The source of these data is patent US20070173539A1, “Use of malonomicin and analogs in fungicidal applications” (priority 2006, published 2007).

The structures appear in SMILES notation.

Holding throughout (format): in vivo
Experiment [1] concerns Puccinia recondita f. sp. tritici (PUCCRT). In words: Brown Rust of Wheat Drop Line Test. As to conditions: Drop Line Test 0.5 μg/leaf, 2 microliter drop on wheat leaf. The method, then:
(§1) Brown Rust of Wheat (Puccinia recondita f. sp. tritici-PUCCRT) (1 DP) Wheat (cultivar Monon) was grown in plastic pots (6.2 cm×8.75 cm) containing 50 percent mineral soil, 50 percent Metro-Mix 360 (W.R Grace and Co.) until the seedlings were 10-20 cm tall. These plants were then sprayed to runoff with the test compound at a rate of 200 ppm. After 24 hours the test plants were inoculated by spraying with an aqueous spore suspension of Puccinia recondita f. sp. tritici (PUCCRT). The plants were then transferred to a dew chamber for 24 hours, then to the greenhouse until disease developed on the untreated control plants. In Example 3, a Drop Line Test was used, wherein instead of spraying the plant to runoff, a 2 microliter drop was placed on the wheat leaf and observed for disease control.

Experiment [2] has as its system Plasmopara viticola (PLASVI). In words: Downy Mildew of Grape one day protectant (1DP). As to conditions: grape (Carignane), sprayed to runoff, rate 200 ppm. The method, then: Final treatment volumes were obtained by adding 0.1 percent aqueous Ethomeen T25 or 0.1 percent aqueous Spraymate X77+0.1 percent wt./vol. ammonium sulfate^+. Downy Mildew of Grape (Plasmopara viticola-[…]) Vines (cultivar Carignane) were grown from seed in a soilless peat-based potting mixture “Metro-Mix 360” (W.R Grace and Co.) until the seedlings were 10-20 cm tall. These plants were then sprayed to runoff with the test compound at a rate of 200 ppm. After 24 hours the test plants were inoculated by spraying with an aqueous sporangia suspension of Plasmopara viticola ([…]). The plants were then transferred to a dew chamber for 24 hours, then to the greenhouse until disease developed on the untreated control plants.

Experiment [3] deals with Phytophthora infestans (PHYTIN). As to conditions: 1DP, tomato (rutgers), sprayed to runoff, rate 200 ppm.
Experiment [4] relates to Puccinia recondita f. sp. tritici (PUCCRT). In words: Brown Rust of Wheat one day protectant (1DP). As to conditions: wheat (Monon), sprayed to runoff, rate 200 ppm. The method, then: as §1, with “Final treatment volumes were obtained by adding 0.1 percent aqueous Ethomeen T25 or 0.1 percent aqueous Spraymate X77+0.1 percent wt./vol. ammonium sulfate^+. Brown” for “Brown”, “plants.” for “plants. In Example 3, a Drop Line Test was used, wherein instead of spraying the plant to runoff, a 2 microliter drop was placed on the wheat leaf and observed for disease control.”

In experiment [5] the test system is Leptosphaeria nodorum (LEPTNO). The experiment can be described thus: Glume Blotch of Wheat one day protectant (1DP). As to conditions: wheat (Yuma), sprayed to runoff, rate 200 ppm. As to the method:
Final treatment volumes were obtained by adding 0.1 percent aqueous Ethomeen T25 or 0.1 percent aqueous Spraymate X77+0.1 percent wt./vol. ammonium sulfate^+. Glume Blotch of Wheat (Leptosphaeria nodorum-[…]) Wheat (cultivar Yuma) was grown in plastic pots (6.2 cm×8.75 cm) containing 50 percent mineral soil, 50 percent Metro-Mix 360 (W.R Grace and Co.). until the seedlings were 10-20 cm tall. These plants were then sprayed to runoff with the test compound at a rate of 200 ppm. After 24 hours the test plants were inoculated by spraying with an aqueous spore suspension of Leptosphaeria nodorum ([…]). The plants were then transferred to a dew chamber for 24 hours, then to the greenhouse until disease developed on the untreated control plants.

For experiment [6], the system named is Septoria tritici (SEPTTR). The experiment can be described thus: Speckled Leaf Blotch of Wheat one day protectant (1DP). As to conditions: wheat (Monon), sprayed to runoff, rate 200 ppm. As to the method: Final treatment volumes were obtained by adding 0.1 percent aqueous Ethomeen T25 or 0.1 percent aqueous Spraymate X77+0.1 percent wt./vol. ammonium sulfate^+. Speckled Leaf Blotch of Wheat (Septoria tritici-[…]) Wheat (cultivar Monon) was grown in plastic pots (6.2 cm×8.75 cm) containing 50 percent mineral soil, 50 percent Metro-Mix 360 (W.R Grace and Co.) until the seedlings were 10-20 cm tall. These plants were then sprayed to runoff with the test compound at a rate of 200 ppm. After 24 hours the test plants were inoculated by spraying with an aqueous spore suspension of Septoria tritici ([…]). The plants were then transferred to a dew chamber for 24 hours, then to the greenhouse until disease developed on the untreated control plants.

In experiment [7] the test system is Erysiphe graminis f. sp. tritici (ERYSGT). The experiment can be described thus: Powdery Mildew of Wheat one day protectant (1DP). As to conditions: wheat (Monon), sprayed to runoff, rate 200 ppm. As to the method:
Final treatment volumes were obtained by adding 0.1 percent aqueous Ethomeen T25 or 0.1 percent aqueous Spraymate X77+0.1 percent wt./vol. ammonium sulfate^+. Powdery Mildew of Wheat (Erysiphe graminis f. sp. tritici-[…]) Wheat (cultivar Monon) was grown in plastic pots (6.2 cm×8.75 cm) containing 50 percent mineral soil, 50 percent Metro-Mix 360 (W.R Grace and Co.) until the seedlings were 10-20 cm tall. These plants were then sprayed to runoff with the test compound at a rate of 200 ppm. After 24 hours the test plants were inoculated with Erysiphe graminis f. sp. tritici ([…]) by dusting spores from stock plants onto the test plants. The plants were then transferred to the greenhouse until disease developed on the untreated control plants.

With `C[C@H](N)C(=O)NC(CC(=O)O)(CC(=O)C1C(=O)N[C@@H](CN)C1=O)C(=O)O` (some centres unmarked) [Compound III], in experiment [1], the “PUCCRT percent control of plant disease” value is “+ (+ = 30-74 percent control of plant disease)”.

`C[C@H](N)C(=O)NC(CC(=O)C1=C(O)[C@H](CN)NC1=O)(C(=O)O)C(=O)O` [Compound II]: the “PLASVI percent control of plant disease” value in experiment [2] is recorded as “− (− = 0-29 percent control of plant disease)”. The “PHYTIN percent control of plant disease” value in experiment [3] is recorded as “+ (+ = 30-74 percent control of plant disease)”. The “PUCCRT percent control of plant disease” value in experiment [4] is recorded as “++ (++ = 75-100 percent control of plant disease)”. Besides, the “LEPTNO percent control of plant disease” value in experiment [5] is “− (− = 0-29 percent control of plant disease)”. The “SEPTTR percent control of plant disease” value in experiment [6] is “+ (+ = 30-74 percent control of plant disease)”. Moreover, in experiment [7], the “ERYSGT percent control of plant disease” value is given as “− (− = 0-29 percent control of plant disease)”.

In the case of `NC[C@@H]1NC(=O)C(C(=O)CC(CC(=O)O)(NC(=O)[C@@H](N)CO)C(=O)O)=C1O` (some centres unmarked) [Compound VI], the “PHYTIN percent control of plant disease” value in experiment [3] is “− (− = 0-29 percent control of plant disease)”. Also, the “PUCCRT percent control of plant disease” value in experiment [4] is listed as “++ (++ = 75-100 percent control of plant disease)”. Also, the “LEPTNO percent control of plant disease” value in experiment [5] is listed as “− (− = 0-29 percent control of plant disease)”. Moreover, in experiment [6], the “SEPTTR percent control of plant disease” value is recorded as “+ (+ = 30-74 percent control of plant disease)”. The “ERYSGT percent control of plant disease” value in experiment [7] is listed as “− (− = 0-29 percent control of plant disease)”.

For `NC[C@@H]1NC(=O)C(C(=O)CC(CC(=O)O)(NC(=O)[C@@H](N)CO)C(=O)O)=C1O` (some centres unmarked) [Compound V], in experiment [3], the “PHYTIN percent control of plant disease” value is “+ (+ = 30-74 percent control of plant disease)”. Also, the “PUCCRT percent control of plant disease” value in experiment [4] is “++ (++ = 75-100 percent control of plant disease)”. For the same compound, in experiment [5], the “LEPTNO percent control of plant disease” value is “− (− = 0-29 percent control of plant disease)”. Moreover, in experiment [6], the “SEPTTR percent control of plant disease” value is reported as “− (− = 0-29 percent control of plant disease)”. Besides, the “ERYSGT percent control of plant disease” value in experiment [7] is on record as “− (− = 0-29 percent control of plant disease)”.
